Results from US20210255193A1, “LYSINE REACTIVE PROBES AND USES THEREOF” (The Scripps Research Institute, priority 2017, published 2021).

Columns and labels:
Experiment in all cases: competitive isoTOP-ABPP
Assay type in all cases: binding
PLIN3 Perilipin-3 = molecular target: T1, PLIN3 Perilipin-3 (Homo sapiens, UniProt O60664); set-up: key to isoTOP-ABPP reactivity ratio at lysine O60664_K257 / isoTOP-ABPP reactivity ratio at lysine O60664_K140: R = MS1 peak area ratio, DMSO (heavy) / compound-treated (light); capped at 20; details: 50 uM, 231 sol, in vitro
T1 construct: isoTOP-ABPP experiments performed in cell lysates (in vitro); endogenous in cells; host or cells: MDA-MB-231 soluble lysate
T1 sequence (O60664 1-434): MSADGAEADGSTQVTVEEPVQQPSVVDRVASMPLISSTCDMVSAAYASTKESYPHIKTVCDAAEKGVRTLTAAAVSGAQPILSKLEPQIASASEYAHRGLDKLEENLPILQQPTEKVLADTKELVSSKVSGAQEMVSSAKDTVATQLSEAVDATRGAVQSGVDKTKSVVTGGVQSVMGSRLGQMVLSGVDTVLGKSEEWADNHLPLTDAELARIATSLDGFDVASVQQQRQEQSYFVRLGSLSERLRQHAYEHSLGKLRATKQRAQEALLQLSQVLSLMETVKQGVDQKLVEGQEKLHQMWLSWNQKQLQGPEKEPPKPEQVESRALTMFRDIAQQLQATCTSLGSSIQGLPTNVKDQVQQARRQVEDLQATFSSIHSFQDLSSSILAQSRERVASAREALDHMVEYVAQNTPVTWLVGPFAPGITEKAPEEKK
Method: (§1) In vitro covalent fragment treatment for isoTOP-ABPP. All compounds were made up as solutions in DMSO (100×) and were used at a final concentration of 50 μM for activated esters and 100 μM for guanidinylating agents. For each profiling sample, 0.5 ml of lysate was treated with 5 μl of the 100× compound stock solution or 5 μl of DMSO. Samples were treated with activated esters for
(§2) STP-alkyne labeling and click chemistry. For concentration-dependent reactivity measurements by isoTOP-ABPP, 0.5 ml proteome aliquots were treated at ambient temperature with 1 mM STP-alkyne 1 (5 μl of 100 mM stock in DMSO) and 0.1 mM STP alkyne 1 (5 μl of 10 mM stock in DMSO), respectively. For competitive isoTOP-ABPP, after in vitro fragment treatment (detailed above), the samples were labeled for 1 h at ambient temperature with 0.1 mM STP-alkyne 1 (5 μl of 10 mM stock in DMSO). Samples were conjugated by copper-mediated azide-alkyne cycloaddition (CuAAC) to either the light (1 mM STP-alkyne or fragment treated) or heavy (0.1 mM STP-alkyne or DMSO treated) TEV tags (10 μl of 5 mM stocks in DMSO, final concentration=100 μM) using tris(2-carboxyethyl)phosphine hydrochloride
(§3) R value calculation and processing. The ratios of light and heavy MS1 peaks for each unique peptide were quantified with a CIMAGE software using default parameters (3 MS1 acquisitions per peak and signal to noise threshold set to 2.5). For reactivity measurements by isoTOP-ABPP, the R value was calculated from the ratio of MS1 peak areas, comparing the 1 mM STP alkyne sample (light TEV tag) with the 0.1 mM STP alkyne sample (heavy TEV tag). For competitive isoTOP-ABPP, the R value was calculated from the ratio of MS1 peak areas, comparing the DMSO treated sample (heavy TEV tag) with the compound treated sample (light TEV tag). […] Ratios for unique peptide entries are calculated for each experiment; overlapping peptides with the same modified lysine (for example, different charge states, MudPIT chromatographic steps or tryptic termini) are grouped together and the median ratio is reported as the final ratio (R). The peptide ratios reported by CIMAGE were further filtered to ensure the removal or correction of low-quality ratios in each individual data set. The quality filters applied were the following: removal of half tryptic peptides; for ratios with high standard deviations from the median (90% of the median or above) the lowest ratio was taken instead of the median; removal of peptides with R=20 and only a single MS2 event triggered during the elution of the parent ion; manual annotation of all the peptides with ratios of 20, removing any peptides with low quality elution profiles that remained after the previous curation steps (only done for competitive isoTOP-ABPP).
(§4) Cross-data processing for fragment screening. For compound treated samples, biological replicates of the same condition were averaged, if the standard deviation was below 60% of the mean; otherwise, for lysines with at least one R value <4 for a particular compound, the lowest value of the ratio set was taken. For lysines, where all R values for a particular compound were ≥4, the average was reported. For peptides containing several possible modified lysines, the lysine with the highest number of quantification events was used for analysis and the remaining, redundant peptides were reported as alternative modification sites. Peptides included in the aggregate dataset (those used for further bioinformatics and statistical analyses) were required to have been quantified in 2 experiments for competitive isoTOP-ABPP. Lysines were categorized as liganded, if they had at least one ratio R≥4 (hit fragments). For liganded lysines with R=20 for all liganding events, lysines were required to have been quantified with R=20 in two separate experiments and were further required to have been quantified with R<20 in one additional experiment.

[1] = molecular target: T2, ECH1 Delta(3,5)-Delta(2,4)-dienoyl-CoA isomerase, mitochondrial (Homo sapiens, UniProt Q13011); set-up: key to isoTOP-ABPP reactivity ratio at lysine Q13011_K112: R = MS1 peak area ratio, DMSO (heavy) / compound-treated (light); capped at 20; details: for R value (DMSO/fragment) for probe 1 labeling: Q13011_K112; for R value (DMSO/fragment) for probe 1 labeling / isoTOP-ABPP reactivity ratio at lysine Q13011_K112 / isoTOP-ABPP ratio (R) at liganded lysine Q13011_K112: 50 uM, in vitro; for R value (DMSO/fragment) for probe 1 labeling / isoTOP-ABPP reactivity ratio at lysine Q13011_K112: 231 sol; for isoTOP-ABPP ratio (R) at liganded lysine Q13011_K112: sol, 231
T2 construct: isoTOP-ABPP experiments performed in cell lysates (in vitro); endogenous in cells; host or cells: soluble proteome of human cancer cell lines (MDA-MB-231, Ramos, Jurkat)
T2 sequence (Q13011 34-328): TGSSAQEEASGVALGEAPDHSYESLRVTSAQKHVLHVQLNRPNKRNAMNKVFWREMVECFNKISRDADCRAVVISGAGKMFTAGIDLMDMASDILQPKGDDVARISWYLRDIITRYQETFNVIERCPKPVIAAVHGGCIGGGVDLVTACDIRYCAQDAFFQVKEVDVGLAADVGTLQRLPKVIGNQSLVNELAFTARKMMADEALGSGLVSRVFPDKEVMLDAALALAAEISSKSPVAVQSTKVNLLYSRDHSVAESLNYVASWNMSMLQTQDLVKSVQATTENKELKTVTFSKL
Method: as §1, §2, §3, §4

[2] = molecular target: T3, ISOC2 Isochorismatase domain-containing protein 2, mitochondrial (Homo sapiens, UniProt Q96AB3); set-up: key to isoTOP-ABPP reactivity ratio at lysine Q96AB3_K178: R = MS1 peak area ratio, DMSO (heavy) / compound-treated (light); capped at 20; details: for R value (DMSO/fragment) for probe 1 labeling: Q96AB3_K178; for R value (DMSO/fragment) for probe 1 labeling / isoTOP-ABPP reactivity ratio at lysine Q96AB3_K178 / isoTOP-ABPP ratio (R) at liganded lysine Q96AB3_K178: 50 uM, in vitro; for R value (DMSO/fragment) for probe 1 labeling / isoTOP-ABPP reactivity ratio at lysine Q96AB3_K178: 231 sol; for isoTOP-ABPP ratio (R) at liganded lysine Q96AB3_K178: sol, 231
T3 construct: isoTOP-ABPP experiments performed in cell lysates (in vitro); endogenous in cells; host or cells: soluble proteome of human cancer cell lines (MDA-MB-231; Ramos and Jurkat also prepared)
T3 sequence (Q96AB3 1-205): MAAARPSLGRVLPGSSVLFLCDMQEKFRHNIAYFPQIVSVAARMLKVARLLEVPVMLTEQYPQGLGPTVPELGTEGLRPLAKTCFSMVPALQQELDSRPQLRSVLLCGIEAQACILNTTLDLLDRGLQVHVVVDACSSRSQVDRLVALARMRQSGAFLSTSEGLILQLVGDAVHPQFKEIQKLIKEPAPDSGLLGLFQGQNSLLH
Method: as §1, §2, §3, §4

Compound | R value (DMSO/fragment) for probe 1 labeling [1] | R value (DMSO/fragment) for probe 1 labeling [2] | isoTOP-ABPP reactivity ratio at lysine Q13011_K112 [1] | isoTOP-ABPP reactivity ratio at lysine Q96AB3_K178 [2] | further results
O=C(CCc1cn(-c2ccccc2)nc1-c1ccccc1)Oc1c(F)c(F)c(F)c(F)c1F [fragment 19, Pentafluorophenyl 3-(1,3-diphenyl-1H-pyrazol-4-yl)propanoate] | 4.7 | 1.2 |  |  | R value (DMSO/fragment) for probe 1 labeling (PLIN3 Perilipin-3; O60664_K140): 1.5; R value (DMSO/fragment) for probe 1 labeling (PLIN3 Perilipin-3; O60664_K257): 2.2
O=C(Oc1c(F)c(F)c(F)c(F)c1F)C(c1ccccc1)c1ccccc1 [fragment 20, Pentafluorophenyl 2,2-diphenylacetate] | 1.4 | 0.9 |  |  | R value (DMSO/fragment) for probe 1 labeling (PLIN3 Perilipin-3; O60664_K257): 2.5
O=C(Oc1c(F)c(F)c(F)c(F)c1F)c1cc(C(F)(F)F)cc(C(F)(F)F)c1 [fragment 21, Pentafluorophenyl 3,5-bis(trifluoromethyl)benzoate] | 1.5 | 1.0 |  |  | R value (DMSO/fragment) for probe 1 labeling (PLIN3 Perilipin-3; O60664_K257): 2.0
Cn1cc(CC(=O)Oc2c(F)c(F)c(F)c(F)c2F)c2ccccc21 [fragment 22, Pentafluorophenyl 2-(1-methyl-1H-indol-3-yl)acetate] | 1.5 | 1.0 |  |  | R value (DMSO/fragment) for probe 1 labeling (PLIN3 Perilipin-3; O60664_K257): 2.6
COc1cc(CCC(=O)Oc2c(F)c(F)c(F)c(F)c2F)cc(OC)c1OC [fragment 23, Pentafluorophenyl 3-(3,4,5-trimethoxyphenyl)propanoate] | 4.7 | 1.2 |  |  | 
O=C(Oc1c(F)c(F)c(F)c(F)c1F)C1CCN(C(=O)OCc2ccccc2)CC1 [fragment 24, 1-Benzyl 4-(pentafluorophenyl) piperidine-1,4-dicarboxylate] |  |  |  |  | isoTOP-ABPP reactivity ratio at lysine O60664_K140 (PLIN3 Perilipin-3): 1.7
O=C(Oc1c(F)c(F)c(F)c(F)c1F)c1ccc2ccccc2n1 [fragment 25, Pentafluorophenyl quinoline-2-carboxylate] |  |  | 2.7 | 1.4 | 
O=C(CCc1coc2cc(F)ccc2c1=O)Oc1c(F)c(F)c(F)c(F)c1F [fragment 26, Pentafluorophenyl 3-(7-fluoro-4-oxo-4H-chromen-3-yl)propanoate] |  |  |  |  | isoTOP-ABPP reactivity ratio at lysine O60664_K140 (PLIN3 Perilipin-3): 1.2; isoTOP-ABPP reactivity ratio at lysine O60664_K257 (PLIN3 Perilipin-3): 4.1
O=C(CN1C(=O)c2ccccc2C1=O)Oc1c(F)c(F)c(F)c(F)c1F [fragment 27, Pentafluorophenyl 2-(1,3-dioxoisoindolin-2-yl)acetate] |  |  | 2.7 | 1.3 | isoTOP-ABPP reactivity ratio at lysine O60664_K140 (PLIN3 Perilipin-3): 1.9; isoTOP-ABPP reactivity ratio at lysine O60664_K257 (PLIN3 Perilipin-3): 1.8
CCn1cc(C(=O)Oc2c(F)c(F)c(F)c(F)c2F)c(=O)c2ccc(C)nc21 [fragment 28, Pentafluorophenyl 1-ethyl-7-methyl-4-oxo-1,4-dihydro-1,8-naphthyridine-3-carboxylate] |  |  | 1.8 | 1.8 | isoTOP-ABPP reactivity ratio at lysine O60664_K140 (PLIN3 Perilipin-3): 1.2; isoTOP-ABPP reactivity ratio at lysine O60664_K257 (PLIN3 Perilipin-3): 1.1
O=C(Oc1ccc([N+](=O)[O-])cc1[N+](=O)[O-])c1cc(C(F)(F)F)cc(C(F)(F)F)c1 [fragment 31, 2,4-Dinitrophenyl 3,5-bis(trifluoromethyl)benzoate] |  |  | 1.2 | 2.1 | 
Cn1cc(CC(=O)Oc2ccc([N+](=O)[O-])cc2[N+](=O)[O-])c2ccccc21 [fragment 32, 2,4-Dinitrophenyl 2-(1-methyl-1H-indol-3-yl)acetate] |  |  | 1.0 | 1.1 | 
O=C(Oc1ccc([N+](=O)[O-])cc1[N+](=O)[O-])C1CCN(C(=O)OCc2ccccc2)CC1 [fragment 34, 1-Benzyl 4-(2,4-dinitrophenyl) piperidine-1,4-dicarboxylate] |  |  |  |  | isoTOP-ABPP ratio (R) at liganded lysine Q13011_K112 [1]: 1.1; isoTOP-ABPP ratio (R) at liganded lysine Q96AB3_K178 [2]: 1.1
O=C(CC12CC3CC(CC(C3)C1)C2)Oc1ccc([N+](=O)[O-])cc1[N+](=O)[O-] [fragment 38, 2,4-Dinitrophenyl 2-(adamantan-1-yl)acetate] |  |  |  |  | isoTOP-ABPP ratio (R) at liganded lysine Q13011_K112 [1]: 0.9; isoTOP-ABPP ratio (R) at liganded lysine Q96AB3_K178 [2]: 0.9
CC(=O)Oc1ccc([N+](=O)[O-])cc1[N+](=O)[O-] [fragment 43, 2,4-Dinitrophenyl acetate] |  |  |  |  | isoTOP-ABPP ratio (R) at liganded lysine Q13011_K112 [1]: 1.2; isoTOP-ABPP ratio (R) at liganded lysine Q96AB3_K178 [2]: 1.1
O=C(Oc1c(F)c(F)c(C(F)(F)F)c(F)c1F)c1cc(C(F)(F)F)cc(C(F)(F)F)c1 [fragment 47, 2,3,5,6-Tetrafluoro-4-(trifluoromethyl)phenyl 3,5-bis(trifluoromethyl)benzoate] |  |  |  |  | isoTOP-ABPP ratio, lysine Q13011_K112 ([1]; 50 uM_231_sol_in vitro): 1.0; isoTOP-ABPP ratio, lysine Q96AB3_K178 ([2]; 50 uM_231_sol_in vitro): 1.2
